Test results taken from article PMC12814486 (Bioorganic & medicinal chemistry, 2025).
≈ marks a conversion by molar mass, not a printed value.

Experiments:
human FAAH = molecular target: T1, human FAAH (Homo sapiens, UniProt O00519); assay: FAAH inhibition assay; type: biochemical
T1 sequence (O00519 1-579): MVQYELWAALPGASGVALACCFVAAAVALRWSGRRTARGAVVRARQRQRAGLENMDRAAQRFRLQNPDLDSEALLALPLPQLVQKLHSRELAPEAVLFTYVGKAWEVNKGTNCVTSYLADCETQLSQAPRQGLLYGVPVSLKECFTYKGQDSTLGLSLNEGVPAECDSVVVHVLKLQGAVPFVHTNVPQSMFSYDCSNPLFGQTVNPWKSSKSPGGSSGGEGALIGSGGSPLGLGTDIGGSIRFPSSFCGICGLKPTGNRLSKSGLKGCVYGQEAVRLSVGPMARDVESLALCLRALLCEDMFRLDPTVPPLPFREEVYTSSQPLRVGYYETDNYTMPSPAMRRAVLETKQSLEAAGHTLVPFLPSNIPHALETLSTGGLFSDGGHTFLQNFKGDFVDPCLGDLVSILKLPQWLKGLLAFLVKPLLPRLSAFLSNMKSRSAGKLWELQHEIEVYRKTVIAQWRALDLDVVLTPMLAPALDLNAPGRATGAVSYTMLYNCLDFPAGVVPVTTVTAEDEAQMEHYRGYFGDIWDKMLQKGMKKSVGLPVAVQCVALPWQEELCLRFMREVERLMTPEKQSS

human sEH = molecular target: T2, human sEH (Homo sapiens, UniProt P34913); assay: sEH inhibition assay; type: biochemical
T2 sequence (P34913 1-555): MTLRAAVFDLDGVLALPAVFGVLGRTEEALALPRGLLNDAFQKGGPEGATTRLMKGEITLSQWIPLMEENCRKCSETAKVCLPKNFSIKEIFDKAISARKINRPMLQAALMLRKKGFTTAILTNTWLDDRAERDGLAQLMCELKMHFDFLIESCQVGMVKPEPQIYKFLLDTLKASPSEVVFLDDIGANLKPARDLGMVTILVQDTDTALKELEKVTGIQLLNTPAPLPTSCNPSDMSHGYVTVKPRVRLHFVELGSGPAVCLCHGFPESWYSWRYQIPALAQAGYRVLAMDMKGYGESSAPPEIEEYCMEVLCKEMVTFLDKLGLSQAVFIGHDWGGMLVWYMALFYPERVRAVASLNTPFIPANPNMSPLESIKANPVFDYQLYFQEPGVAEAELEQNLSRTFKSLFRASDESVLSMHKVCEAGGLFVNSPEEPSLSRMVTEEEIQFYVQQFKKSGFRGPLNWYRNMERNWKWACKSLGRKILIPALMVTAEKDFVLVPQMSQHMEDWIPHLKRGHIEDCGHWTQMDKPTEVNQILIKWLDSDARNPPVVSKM

mouse sEH = molecular target: T3, mouse sEH (Mus musculus, UniProt P34914); assay: sEH inhibition assay; type: biochemical
T3 sequence (P34914 1-554): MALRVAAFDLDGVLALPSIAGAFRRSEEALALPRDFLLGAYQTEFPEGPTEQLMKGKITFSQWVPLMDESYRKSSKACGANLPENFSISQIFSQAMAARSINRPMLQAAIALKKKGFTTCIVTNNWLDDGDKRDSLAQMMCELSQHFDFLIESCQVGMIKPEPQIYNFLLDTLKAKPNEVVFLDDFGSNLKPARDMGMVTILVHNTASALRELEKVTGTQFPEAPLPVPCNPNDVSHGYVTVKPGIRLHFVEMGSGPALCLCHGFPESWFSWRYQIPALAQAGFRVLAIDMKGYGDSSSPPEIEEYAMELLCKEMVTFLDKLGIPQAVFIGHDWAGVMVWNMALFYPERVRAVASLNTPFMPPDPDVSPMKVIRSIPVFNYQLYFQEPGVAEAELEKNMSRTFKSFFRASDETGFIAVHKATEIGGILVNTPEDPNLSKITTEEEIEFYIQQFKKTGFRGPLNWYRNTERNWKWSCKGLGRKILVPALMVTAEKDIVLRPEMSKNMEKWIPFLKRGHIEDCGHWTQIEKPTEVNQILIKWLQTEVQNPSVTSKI

rat sEH = molecular target: T4, rat sEH (Rattus norvegicus, UniProt P80299); assay: sEH inhibition assay; type: biochemical
T4 sequence (P80299 1-554): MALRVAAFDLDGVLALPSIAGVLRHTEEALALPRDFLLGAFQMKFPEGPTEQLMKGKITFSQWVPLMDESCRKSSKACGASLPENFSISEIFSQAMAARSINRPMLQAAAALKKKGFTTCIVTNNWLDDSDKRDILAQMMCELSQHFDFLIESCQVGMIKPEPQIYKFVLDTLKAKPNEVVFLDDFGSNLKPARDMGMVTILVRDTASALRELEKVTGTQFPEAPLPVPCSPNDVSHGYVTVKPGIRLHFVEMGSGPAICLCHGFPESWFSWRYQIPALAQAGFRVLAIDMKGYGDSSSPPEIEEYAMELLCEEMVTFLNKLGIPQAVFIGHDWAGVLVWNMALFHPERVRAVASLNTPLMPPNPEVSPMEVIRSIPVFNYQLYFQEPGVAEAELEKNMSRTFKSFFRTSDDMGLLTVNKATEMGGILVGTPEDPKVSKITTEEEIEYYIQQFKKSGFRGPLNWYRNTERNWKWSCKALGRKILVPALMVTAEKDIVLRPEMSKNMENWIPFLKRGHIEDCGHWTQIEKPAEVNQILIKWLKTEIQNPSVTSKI

Solubility assay = type: physicochemical; details: sodium phosphate buffer, pH 7.4, aqueous buffer, kinetic from dmso stock
male Sprague-Dawley rats = assay: Home cage wheel running; type: in vivo, rat; details: 3 mg/kg intraperitoneal, vs vehicle, n = 8/group

Row | SMILES | IC50 (human FAAH) | IC50 (human sEH) | IC50 (mouse sEH) | IC50 (rat sEH) | solubility (Solubility assay) | wheel revolutions in the 15 min after drug injection (male Sprague-Dawley rats)
1 | O=C(Nc1ccc(-c2cncnc2)cc1)C1CCN(S(=O)(=O)c2ccccc2Cl)CC1 [Compound 4b, 1-((2-chlorophenyl)sulfonyl)-N-(4-(pyrimidin-5-yl)phenyl)piperidine-4-carboxamide] | 196 nM | 5.6 nM | 904 nM | 4.9 nM | > 63 µM | 
2 | O=C(Nc1ccc(-c2nnnn2Cc2ccccc2)cc1)C1CCN(S(=O)(=O)c2ccccc2Cl)CC1 [Compound 4p, N-(4-(1-benzyl-1H-tetrazol-5-yl)phenyl)-1-((2-chlorophenyl)sulfonyl)piperidine-4-carboxamide] | > 10000 nM | 9.8 nM | 106 nM | 25.5 nM | 31 to 63 µM (≈ 16.6 to 33.8 µg/mL) | 
3 | COc1cnc(-c2ccc(NC(=O)C3CCN(S(=O)(=O)c4ccccc4Cl)CC3)cc2)nc1 [Compound 4f, 1-((2-chlorophenyl)sulfonyl)-N-(4-(5-methoxypyrimidin-2-yl)phenyl)piperidine-4-carboxamide] | 181 nM | 26.3 nM | 32.4 nM | 55.9 nM | 31 to 63 µM (≈ 15.1 to 30.7 µg/mL) | 
4 | O=C(Nc1ccc(-c2ncc(Cl)cn2)cc1)C1CCN(S(=O)(=O)c2ccccc2Cl)CC1 [Compound 4d, 1-((2-chlorophenyl)sulfonyl)-N-(4-(5-chloropyrimidin-2-yl)phenyl)piperidine-4-carboxamide] | 460 nM | 89.4 nM | 89 nM | 82.3 nM | 31 to 63 µM (≈ 15.2 to 31 µg/mL) | 
5 | COc1ncc(-c2ccc(NC(=O)C3CCN(S(=O)(=O)c4ccccc4Cl)CC3)cc2)cn1 [Compound 4j, 1-((2-chlorophenyl)sulfonyl)-N-(4-(2-methoxypyrimidin-5-yl)phenyl)piperidine-4-carboxamide] | 462 nM | 7.7 nM | 379 nM | 17.9 nM | 31 to 63 µM (≈ 15.1 to 30.7 µg/mL) | 
6 | O=C(Nc1ccc(-c2cnc(Cl)nc2Cl)cc1)C1CCN(S(=O)(=O)c2ccccc2Cl)CC1 [Compound 4l, 1-((2-chlorophenyl)sulfonyl)-N-(4-(2,4-dichloropyrimidin-5-yl)phenyl)piperidine-4-carboxamide] | 2000 nM | 78.8 nM | 40.4 nM | 15.4 nM | 31 to 63 µM (≈ 16.3 to 33.1 µg/mL) | 
7 | COc1cnc(-n2nnnc2-c2ccc(NC(=O)C3CCN(S(=O)(=O)c4ccccc4Cl)CC3)cc2)c(OC)n1 [Compound 4q, 1-((2-chlorophenyl)sulfonyl)-N-(4-(1-(3,5-dimethoxypyrazin-2-yl)-1H-tetrazol-5-yl)phenyl)piperidine-4-carboxamide] | > 10000 nM | 213 nM | 264 nM | 305 nM | 31 to 63 µM (≈ 18.1 to 36.9 µg/mL) | 
8 | O=C(Nc1ccc(-c2cnc(C(F)(F)F)nc2)cc1)C1CCN(S(=O)(=O)c2ccccc2Cl)CC1 [Compound 4k, 1-((2-chlorophenyl)sulfonyl)-N-(4-(2-(trifluoromethyl)pyrimidin-5-yl)phenyl)piperidine-4-carboxamide] | 327 nM | 94.6 nM | 1130 nM | 134 nM | 31 to 63 µM (≈ 16.3 to 33.1 µg/mL) | 
9 | O=C(Nc1ccc(-c2cnc(F)nc2)cc1)C1CCN(S(=O)(=O)c2ccccc2Cl)CC1 [Compound 4g, 1-((2-chlorophenyl)sulfonyl)-N-(4-(2-fluoropyrimidin-5-yl)phenyl)piperidine-4-carboxamide] | 175 nM | 27.2 nM | 161 nM | 43.7 nM | 31 to 63 µM (≈ 14.7 to 29.9 µg/mL) | 
10 | O=C(Nc1ccc(-c2nnn[nH]2)cc1)C1CCN(S(=O)(=O)c2ccccc2Cl)CC1 [Compound 4n, N-(4-(1H-tetrazol-5-yl)phenyl)-1-((2-chlorophenyl)sulfonyl)piperidine-4-carboxamide] | > 10000 nM | 232 nM | 202 nM | 83.4 nM | 31 to 63 µM (≈ 13.9 to 28.2 µg/mL) | 
11 | Cc1cnc(-c2ccc(NC(=O)C3CCN(S(=O)(=O)c4ccccc4Cl)CC3)cc2)nc1 [Compound 4e, 1-((2-chlorophenyl)sulfonyl)-N-(4-(5-methylpyrimidin-2-yl)phenyl)piperidine-4-carboxamide] | 308 nM | 73.6 nM | 79.8 nM | 73.9 nM | 31 to 63 µM (≈ 14.6 to 29.7 µg/mL) | 
12 | Cc1ncc(-c2ccc(NC(=O)C3CCN(S(=O)(=O)c4ccccc4Cl)CC3)cc2)cn1 [Compound 4i, 1-((2-chlorophenyl)sulfonyl)-N-(4-(2-methylpyrimidin-5-yl)phenyl)piperidine-4-carboxamide] | 1240 nM | 5.6 nM | 214 nM | 12.1 nM | 31 to 63 µM (≈ 14.6 to 29.7 µg/mL) | 
13 | O=C(Nc1ccc(-c2nnnn2C2CC2)cc1)C1CCN(S(=O)(=O)c2ccccc2Cl)CC1 [Compound 4o, 1-((2-chlorophenyl)sulfonyl)-N-(4-(1-cyclopropyl-1H-tetrazol-5-yl)phenyl)piperidine-4-carboxamide] | > 10000 nM | 22 nM | 12.5 nM | 29.6 nM | 31 to 63 µM (≈ 15.1 to 30.7 µg/mL) | 
14 | O=C(Nc1ccc(-c2cnc(Cl)nc2)cc1)C1CCN(S(=O)(=O)c2ccccc2Cl)CC1 [Compound 4h, 1-((2-chlorophenyl)sulfonyl)-N-(4-(2-chloropyrimidin-5-yl)phenyl)piperidine-4-carboxamide] | 258 nM | 32.6 nM | 510 nM | 71.5 nM | 31 to 63 µM (≈ 15.2 to 31 µg/mL) | 
15 | O=C(Nc1ccc(-c2ncccn2)cc1)C1CCN(S(=O)(=O)c2ccccc2Cl)CC1 [Compound 4a, 1-((2-chlorophenyl)sulfonyl)-N-(4-(pyrimidin-2-yl)phenyl)piperidine-4-carboxamide] | 175 nM | 19.7 nM | 342 nM | 18.1 nM | > 63 µM | 
16 | CN1CC[C@]23c4c5ccc(O)c4O[C@H]2[C@@H](O)C=C[C@H]3[C@H]1C5 [morphine, reference compound] |  |  |  |  |  | significantly lower
17 | O=C(Nc1ccc(-c2ncc(F)cn2)cc1)C1CCN(S(=O)(=O)c2ccccc2Cl)CC1 [Compound 4c, 1-((2-chlorophenyl)sulfonyl)-N-(4-(5-fluoropyrimidin-2-yl)phenyl)piperidine-4-carboxamide] | 290 nM | 23.4 nM | 82.5 nM | 47.7 nM | 31 to 63 µM (≈ 14.7 to 29.9 µg/mL) | 
